Test results taken from patent US20080145313A1, “Compositions and Methods for the Treatment and Prevention of Neoplastic Disorders” (Genesis Research & Development Corporation Limited, priority 2006, published 2008).

Legend:
A549 cells = assay: Growth inhibition of siRNA-transfected A549 cells, SYBR Green I DNA content; assay type: cell-based, human; conditions: A549 cells, 10 nM siRNA, DNA content 96 hours after transfection, transporter gene targets
How it was run: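 Growth read-out: cellular DNA quantified with SYBR Green I (485/535 nm) 96 h after transfection, cells frozen, thawed and lysed in PBS/1% Triton X-100, pH 7. Cells (A549, 5×10^3 cells/cm^2) received 10 nM siRNA by RNAiMAX; non-specific siRNA served as control; triplicate wells averaged.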

[1] = test system: target transcript mRNA in A549 cells; assay: Level of mRNA of target transcript in A549 cells by quantitative RT-PCR (Tables 12 and 13); assay type: cell-based, human; conditions: 24 h post-transfection; for mRNA knockdown of transporter gene target transcript, 0.1 nM: 0.1 nM siRNA; for mRNA knockdown of transporter gene target transcript, 1 nM: 1 nM siRNA; for mRNA knockdown of transporter gene target transcript, 10 nM: 10 nM siRNA
How it was run: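 Target mRNA was measured by SYBR Green quantitative RT-PCR using random-primed cDNA, normalised to HPRT and Lamin. Samples came from A549 cells 24 h post-transfection with 0.1, 1.0 or 10 nM siRNA.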

Substance	Growth Inhibition in A549 cells by 10 nM siRNA (A549 cells)	mRNA knockdown of transporter gene target transcript, 0.1 nM [1]	mRNA knockdown of transporter gene target transcript, 1 nM [1]	mRNA knockdown of transporter gene target transcript, 10 nM [1]
SEQ ID NO: 4905: siRNA targeting SLC7A11 (xCT) (chain 1 ATTATGAGGAGTTCCACCCAGACTC; chain 2 AUUAUGAGGAGUUCCACCCAGACUC; Antisense strand given in DNA and RNA notation, chemistry not given here; one strand in two spellings)	++ (inhibits by at least 75%)	++ (70-90% mRNA knockdown)	++ (70-90% mRNA knockdown)	–
SEQ ID NO: 4906: siRNA targeting SLC7A11 (xCT) (chain 1 TAATGAGAAATTTCCCAGTAGCCGC; chain 2 UAAUGAGAAAUUUCCCAGUAGCCGC; Antisense strand given in DNA and RNA notation, chemistry not given here; one strand in two spellings)	− (no growth inhibition)	+ (50-70% mRNA knockdown)	++ (70-90% mRNA knockdown)	–
SEQ ID NO: 4907: siRNA targeting SLC3A2 (4F2hc) (chain 1 TTTGTTGGATTCGAGTAGGCTCAGG; chain 2 UUUGUUGGAUUCGAGUAGGCUCAGG; Antisense strand given in DNA and RNA notation, chemistry not given here; one strand in two spellings)	− (no growth inhibition)	− (<50% mRNA knockdown)	− (<50% mRNA knockdown)	–
SEQ ID NO: 4908: siRNA targeting SLC3A2 (4F2hc) (chain 1 AAGTTGAGCCGGCAAGAAGGAAGTC; chain 2 AAGUUGAGCCGGCAAGAAGGAAGUC; Antisense strand given in DNA and RNA notation, chemistry not given here; one strand in two spellings)	++ (inhibits by at least 75%)	− (<50% mRNA knockdown)	+ (50-70% mRNA knockdown)	–
SEQ ID NO: 4909: siRNA targeting SLC3A2 (4F2hc) (chain 1 AAGAGCATCAGCTGGTAGAGTCGGA; chain 2 AAGAGCAUCAGCUGGUAGAGUCGGA; Antisense strand given in DNA and RNA notation, chemistry not given here; one strand in two spellings)	− (no growth inhibition)	+ (50-70% mRNA knockdown)	++ (70-90% mRNA knockdown)	–
SEQ ID NO: 4910: siRNA targeting SLC5A6 (SMVT1) (chain 1 AAGGCAAGGCCTCTGGAAAGCATGA; chain 2 AAGGCAAGGCCUCUGGAAAGCAUGA; Antisense strand given in DNA and RNA notation, chemistry not given here; one strand in two spellings)	− (no growth inhibition)	− (<50% mRNA knockdown)	+ (50-70% mRNA knockdown)	–
SEQ ID NO: 4911: siRNA targeting SLC5A6 (SMVT1) (chain 1 AATGACGGAGCATAGAGCACAACTC; chain 2 AAUGACGGAGCAUAGAGCACAACUC; Antisense strand given in DNA and RNA notation, chemistry not given here; one strand in two spellings)	− (no growth inhibition)	++ (70-90% mRNA knockdown)	++ (70-90% mRNA knockdown)	–
SEQ ID NO: 4912: siRNA targeting SLC5A6 (SMVT1) (chain 1 ACCAGTGTCTGGAACACATCTGTCC; chain 2 ACCAGUGUCUGGAACACAUCUGUCC; Antisense strand given in DNA and RNA notation, chemistry not given here; one strand in two spellings)	− (no growth inhibition)	+ (50-70% mRNA knockdown)	+ (50-70% mRNA knockdown)	–
SEQ ID NO: 4913: siRNA targeting SLC19A2 (ThTr1) (chain 1 AATACAAGGAGACGGTCTGGCTTGG; chain 2 AAUACAAGGAGACGGUCUGGCUUGG; Antisense strand given in DNA and RNA notation, chemistry not given here; one strand in two spellings)	− (no growth inhibition)	++ (70-90% mRNA knockdown)	++ (70-90% mRNA knockdown)	–
SEQ ID NO: 4916: siRNA targeting SLC23A2 (SVCT2) (chain 1 AATACTAGGAATATTGTCAGCATGG; chain 2 AAUACUAGGAAUAUUGUCAGCAUGG; Antisense strand given in DNA and RNA notation, chemistry not given here; one strand in two spellings)	− (no growth inhibition)	++ (70-90% mRNA knockdown)	++ (70-90% mRNA knockdown)	–
SEQ ID NO: 4917: siRNA targeting SLC23A2 (SVCT2) (chain 1 AACAGCTGTAACTTGTACGCAGTCC; chain 2 AACAGCUGUAACUUGUACGCAGUCC; Antisense strand given in DNA and RNA notation, chemistry not given here; one strand in two spellings)	− (no growth inhibition)	++ (70-90% mRNA knockdown)	++ (70-90% mRNA knockdown)	–
SEQ ID NO: 4918: siRNA targeting SLC23A2 (SVCT2) (chain 1 AATCCAAGCACAAAGAGGTTCCGGG; chain 2 AAUCCAAGCACAAAGAGGUUCCGGG; Antisense strand given in DNA and RNA notation, chemistry not given here; one strand in two spellings)	− (no growth inhibition)	++ (70-90% mRNA knockdown)	++ (70-90% mRNA knockdown)	–
SEQ ID NO: 4919: siRNA targeting SLC9A1 (NHE1) (chain 1 AAACTCCTCAAAGAGGTGATACAGG; chain 2 AAACUCCUCAAAGAGGUGAUACAGG; chemistry not given here; one strand in two spellings)	+ (inhibits by at least 50%)	++ (70-90% mRNA knockdown)	++ (70-90% mRNA knockdown)	–
SEQ ID NO: 4920: siRNA targeting SLC9A1 (NHE1) (chain 1 TCAGGTAGTTGTTGATCTTCTGCTC; chain 2 UCAGGUAGUUGUUGAUCUUCUGCUC; chemistry not given here; one strand in two spellings)	− (no growth inhibition)	++ (70-90% mRNA knockdown)	++ (70-90% mRNA knockdown)	–
SEQ ID NO: 4921: siRNA targeting SLC9A1 (NHE1) (chain 1 ATCAGTGACGGAATGATTAACAGGG; chain 2 AUCAGUGACGGAAUGAUUAACAGGG; chemistry not given here; one strand in two spellings)	− (no growth inhibition)	++ (70-90% mRNA knockdown)	++ (70-90% mRNA knockdown)	–
SEQ ID NO: 4922: siRNA targeting SLC16A1 (MCT1) (chain 1 ATAGGTAGTGGATAAAGGTGCTAGC; chain 2 AUAGGUAGUGGAUAAAGGUGCUAGC; chemistry not given here; one strand in two spellings)	+ (inhibits by at least 50%)	+ (50-70% mRNA knockdown)	++ (70-90% mRNA knockdown)	+++ (>90% mRNA knockdown)
SEQ ID NO: 4923: siRNA targeting SLC16A1 (MCT1) (chain 1 AAATAATTAGGACGACGCCACATGC; chain 2 AAAUAAUUAGGACGACGCCACAUGC; chemistry not given here; one strand in two spellings)	− (no growth inhibition)	+ (50-70% mRNA knockdown)	++ (70-90% mRNA knockdown)	+++ (>90% mRNA knockdown)
SEQ ID NO: 4925: siRNA targeting SLC25A1 (CIC) (chain 1 TAATCACATCCAGAGGAGTGTTTCC; chain 2 UAAUCACAUCCAGAGGAGUGUUUCC; chemistry not given here; one strand in two spellings)	− (no growth inhibition)	++ (70-90% mRNA knockdown)	++ (70-90% mRNA knockdown)	–
